# Test results taken from ChEMBL document CHEMBL3507680, “University of Dundee, Gates Library screen for HepG2 cell viability”.
# Experiment: Human HepG2 cell viability assay in 384 well format
# Format: toxicity, cell-based
# Parameters: dose 125 nL, time 70.5 hour; concentration not given beside the values
# Conditions: HepG2 cells, read-out: Inhibition
row,SMILES,cytotoxicity at 70.5 h
1,CC(=O)N(Cc1ncc(C)o1)C1CCN(Cc2nccn2C)C1 (stereo unspecified),2.28%
2,O=C(NCCO)c1sc2ncccc2c1C1CN(C2CCCC2)CCO1 (stereo unspecified),-3.18%
3,CC(C)(C)C1CC(=O)Nc2c1cnn2Cc1ccco1 (stereo unspecified),-17.9%
4,Cc1cc(C)n(CC(C)NC2CCN(Cc3cccnc3)CC2)n1 (stereo unspecified),-7.19%
5,CC(C)(CCS(C)(=O)=O)CNC(=O)NC1CCCC1(C)C (stereo unspecified),-6.64%
6,Cc1cnn(CCNCC(=O)NCc2ccccc2)c1,-12.3%
7,CCN1CCC(NC(=O)Cc2csc(C(C)(C)C)n2)CC1,24.8%
8,Fc1ccc(Cc2cccc(C3CCN(C4CCOCC4)CC3)n2)cc1,0.432%
9,c1cnn(CCNCCCOc2ccc3c(c2)OCO3)c1,0.993%
10,CCOCCN1CCN(CC(=O)N2CCCC2)CC1C (stereo unspecified),-7.94%
11,O=C(CSCC1CC1)N1CCC2(CCCN(C3CCOCC3)C2=O)C1 (stereo unspecified),-6.7%
12,CC(C)(CNC(=O)OC(C)(C)C)NC(=O)C1CC(=O)N(C2CC2)C1 (stereo unspecified),13.1%
13,NC(=O)CSc1ccccc1NCc1nc(C2CC2)no1,15%
14,CC(=O)NCC(=O)N1C[C@@H]2CC[C@H](Oc3ccccc3Cl)[C@@H]2C1,12.5%
15,Cc1cnn(CC2CCCN2C(=O)c2cc(C)no2)c1 (stereo unspecified),25.6%
16,CC(NC(=O)c1cn(CCC2CCCCC2)nn1)c1cnn(C)c1 (stereo unspecified),20.4%
17,Cc1ccc(C(=O)N2CCCC(CNS(=O)(=O)C(C)C)C2)cc1 (stereo unspecified),-3.09%
18,CC(CCS(C)(=O)=O)NC(=O)NCc1ccc2ccccc2c1 (stereo unspecified),5.09%
19,O=C(c1ccccc1)N1CC[C@H]2C[C@H](c3nccs3)O[C@@H]2C1,-11.2%
20,CN1CCN(C(=O)C2CCCN(c3cccnn3)C2)CC1 (stereo unspecified),26.4%
21,CCS(=O)(=O)NCc1nc(C)cc(N2CCCC2)n1,19.2%
22,O=C(NC1CC1)N1C[C@H]2CN(Cc3cccc(F)c3)C(=O)[C@H]2C1,-13.8%
23,Fc1ccc(CN2CCCC(Cn3cncn3)C2)c2ncccc12 (stereo unspecified),-5.13%
24,CS(=O)(=O)NCc1nnc2n1CCN(Cc1cccs1)C2,-3.11%

row,SMILES,cytotoxicity at 70.5 h
1,CNS(=O)(=O)CCCNC(C)(C)c1nc(C)cs1,-1.16%
2,CCS(=O)(=O)Cc1nnnn1-c1ccccc1,-8.76%
3,CCOC(=O)c1n[nH]cc1-c1cncn1CCn1nc(C)c(Cl)c1C,-5.26%
4,Cc1cc(NC(=O)CCCn2ccnc2C)nc(C(C)C)n1,0.794%
5,CCOc1ccc(CN(C)C(=O)c2nc(N3CCCC3)ncc2Cl)cc1,-8.28%
6,CN(Cc1ccco1)Cc1cnc2n1CCN(S(C)(=O)=O)CC2,26.4%
7,COc1ccc(F)c(F)c1CN1CC(=O)N(c2ccccc2C)CC1C (stereo unspecified),-11.4%
8,COCCN(Cc1ccccn1)Cc1sccc1C,-10.3%
9,Cc1cnc(C(NC(=O)NCC2(CO)CC2)C2CC2)s1 (stereo unspecified),2.13%
10,NC(=O)c1ccccc1NC(=O)CCN1CCN(c2ccccc2)CC1,-9.88%
11,FC1(F)CCN(Cc2cccnc2)CC12CCN(c1ccccn1)C2 (stereo unspecified),-15.1%
12,c1cc(-c2noc(CN3CCn4c(nnc4C4CC4)C3)n2)co1,-0.323%
13,Cc1ccnc(NC(=O)c2ccc(F)c(S(=O)(=O)NC3CC3)c2)c1,-7.61%
14,CS(=O)(=O)c1ccc(CNC(=O)NCc2cc[nH]n2)cc1,-12.3%
15,CCCC(=O)NCc1cccc(C(=O)OC)c1,-9.06%
16,COc1ncccc1CN1CCC2(CCCN2S(C)(=O)=O)CC1,-7.14%
17,CN1CCc2[nH]cnc2C12CCN(Cc1ccc(S(C)(=O)=O)cc1)CC2,-7.39%
18,CCn1cc(CN2C[C@@H]3CCCN3C[C@@H]2CCSC)cn1,-2.81%
19,CC(C)c1n[nH]c(C2CN(C(=O)c3cnccn3)CCO2)n1 (stereo unspecified),18.8%
20,CCN(CC)CCNC(=O)c1cnc(C(C)(C)C)s1,-6.77%
21,CN(C(=O)c1ncn2c1CN(C)S(=O)(=O)c1ccccc1-2)C1CC1,-3.76%
22,COc1cc(Oc2ccc(C(N)=O)cn2)ccc1CN1CCCC1,-6.89%
23,CCc1nc(C)c([C@H]2CN(C)C[C@@H]2C(=O)NCc2ccccc2OC)[nH]1,-2.21%
24,CNc1cc(C2CCCN(Cc3ccccc3OCC(=O)O)C2)ccn1 (stereo unspecified),-8.72%

row,SMILES,cytotoxicity at 70.5 h
1,Cc1cc(C)nc(Nc2cc(C)nc(C3CCN(C(C)C)C3)n2)n1 (stereo unspecified),-5.15%
2,COc1c(C2CCCN2CC(=O)Nc2nccs2)c(C)nn1C (stereo unspecified),-2.85%
3,Cc1nc2c(c(NC(C)C)n1)CCN(C(=O)c1ccno1)CC2,-6.32%
4,CC(C)N1CCCC1c1nc(N(C)C)ncc1I (stereo unspecified),-4.13%
5,Cn1cc(CN(Cc2ccccc2)Cc2ccccn2)cn1,18%
6,COc1ccccc1CN1CCC(O)(Cn2ccc3ncccc32)CC1,-2.09%
7,CC(C)OCCNC(=O)C1CCC(=O)N(C2CCCC2)C1 (stereo unspecified),-4.22%
8,O=S(=O)(CCNCc1cccc2c1OCCO2)N1CCOCC1,5.04%
9,COc1ccc(CN2CCC3(CC2)CCN(c2cnn(C)c2)C3=O)cc1,-6.09%
10,Cc1oncc1C(=O)N1CC[C@H]2[C@H]1CCN2S(C)(=O)=O,-1.36%
11,Cc1ccc(-n2cc(C)cn2)c(NC(=O)NC2(C)CCOC2)c1 (stereo unspecified),-2.69%
12,O=C(c1ccncc1)N1C[C@@H]2CCN(c3cccnc3)C[C@@H]2C1,-16.9%
13,O=C(NC1CCN(C2CC2)C1)c1cn(-c2ccc(F)cc2)nn1 (stereo unspecified),-6.52%
14,CCC(NC1CSCCSC1)c1ccc(S(C)(=O)=O)cc1 (stereo unspecified),-14.2%
15,Cc1ccc(-c2nc(CCNCc3ccncc3)co2)cc1,-6.27%
16,O=c1ccc2c(n1CCN1CCCC1)CCN(Cc1ccoc1)CC2,-5.75%
17,CCS(=O)(=O)N1CCC2(CC1)CC(OCC1CC1)CO2 (stereo unspecified),-7.89%
18,CCc1nc(CN2CCCN(C(=O)c3cn[nH]c3C)CC2)cs1,-6.19%
19,CCOC(=O)[C@H]1CNC[C@@H]1C(F)(F)F,-11.1%
20,COC(=O)CC1CCCCN1CC(=O)Nc1cc(F)ccc1F (stereo unspecified),-4.9%
21,CN(Cc1ccccc1)C(=O)CN1CCCCC1Cn1cncn1 (stereo unspecified),1.47%
22,CCc1nnc(N2CCN(CCc3ccccc3)C(=O)C2)o1,-2.76%
23,COc1cccc(COCC(=O)N2CCCC(n3ccnc3C)C2)c1 (stereo unspecified),-15.7%
24,COc1cc(C2SCC(=O)Nc3[nH]ncc32)c(OC)c2c1OCO2 (stereo unspecified),-12.7%

row,SMILES,cytotoxicity at 70.5 h
1,OC1(CNCCSCc2ccccc2)CCCNC1 (stereo unspecified),18.4%
2,CC1(C)COCCN1C(=O)Cc1csc(Cc2ccccn2)n1,-7.18%
3,c1cc(CCNc2ncc(-c3cnccn3)c(C3CC3)n2)ccn1,-5.03%
4,Cc1c(NC(=O)c2noc3c2CCCC3)cnn1C,16.1%
5,Cc1ccc(C2CCCN(C(=O)c3cnn(C)c3)C2)nc1 (stereo unspecified),24.3%
6,Cn1c(C2CC2)nc2c1CCN(CCS(=O)(=O)c1ccccc1)C2,-14.4%
7,CCc1noc(C(C)N2CCN(CC(=O)N3CCOCC3)CC2)n1 (stereo unspecified),-4.7%
8,Cc1ccc(N2CC(c3nccc(C)n3)C2)nn1,9.5%
9,Cc1cc(-c2cc(-c3cc(CC(=O)O)cs3)nc(N)c2C#N)oc1C,-12.1%
10,CCn1cc2c(n1)CN(C(=O)c1ccncc1)CC2COCC1CC1 (stereo unspecified),-25.7%
11,COc1cc(C)nc(N2CCN(C(=O)CCc3cccs3)CC2)n1,-6.26%
12,CC(C)Cc1noc(CNc2cc3c(cc2Cl)OCCCO3)n1,1.94%
13,COc1ccc(NC(=O)C2CC(=O)n3cnnc3S2)cc1 (stereo unspecified),2.23%
14,O=C(NCC(O)c1cccs1)c1sccc1OC(F)F (stereo unspecified),-3.63%
15,COC(C)(C)c1noc(C2(C#N)CCCCC2)n1,-0.329%
16,COc1ccccc1CC(C)(C)C(=O)NCC(=O)Nc1cccnc1,3.9%
17,Cc1[nH]ncc1CCCNC(=O)N1CCCC(c2nncn2C)C1 (stereo unspecified),-1.78%
18,CC(C)NC(=O)N1CCN(C(=O)NC(C)C)CC2(CNC(=O)C2)C1,2.71%
19,Cc1cncnc1C1CCN(CC2CC2)CC1,19.8%
20,O=S(=O)(NCCn1ccc(-c2ccccn2)n1)C1CCCCC1,23.9%
21,OC1=C2C(=Nc3n[nH]c(O)c3C2c2ccccc2Cl)CCC1 (stereo unspecified),9.03%
22,CCCn1nccc1-c1nccnc1CC1CCN(C(C)=O)C1 (stereo unspecified),-2.05%
23,O=S1(=O)CCN(c2nc(C3CC3)ns2)CC1,-5.98%
24,Cn1cc(CCNCc2cc(Cl)c3c(c2)OCCO3)cn1,-2.02%

row,SMILES,cytotoxicity at 70.5 h
1,O=C(NCc1cncc2c1CCN(CC1CCOC1)C2)c1ccno1 (stereo unspecified),-6.93%
2,CCN(Cc1nc(C(C)C)no1)Cc1cccs1,-10.8%
3,CC(NC(=O)c1cc(C(C)C)[nH]n1)C(=O)Nc1ccccc1 (stereo unspecified),-6.22%
4,Cc1ncc2c(n1)CCN(Cc1ncc(C(C)(C)C)o1)C2,-11.4%
5,COC(=O)c1cc(OC)c(OC)cc1N(C)S(C)(=O)=O,41.7%
6,CCOc1ccc(NC(=O)NCCCN(C)S(C)(=O)=O)cc1C,-15.1%
7,CN(C)CC(=O)N1CCC2(CC1)CN(Cc1ccccc1)C2,30.2%
8,N#Cc1ccc(N2CCCC2Cn2cncn2)nc1 (stereo unspecified),-6.25%
9,O=C(NCCn1nc2ccccn2c1=O)c1cccc2[nH]ncc12,-16.6%
10,CN1CCCC1CCNC(=O)c1ccccc1-n1cc(CN)cn1 (stereo unspecified),1.23%
11,NC(=O)C1CCCN(C(=O)c2ccc(-n3ccnc3)cc2)C1 (stereo unspecified),-5.88%
12,Cc1occc1C(=O)N1C[C@@H](OCc2cccnc2)[C@H]2OCCC[C@@H]21,-21.3%
13,CN(C)C(=O)NCc1nnc2n1CCN(Cc1cccs1)C2,-2.91%
14,COCCN1CCN(S(C)(=O)=O)Cc2ccc(C)nc21,-2.02%
15,Cc1c(C2=NS(=O)(=O)N(C)C(C(=O)Nc3ccc(Br)cc3)=C2)cnn1C,22.2%
16,CC(NCc1cccc(Cl)c1)c1ccc(OCC(=O)NC2CC2)cc1 (stereo unspecified),-4.37%
17,C1CCN(Cc2nnn3c2CN(CC2CC2)CCC3)C1,0.89%
18,CCCc1nc(CN2CCN(Cc3noc(CCC)n3)CC2)no1,11.4%
19,COCC(C)N1CCc2onc(-c3ccc(F)c(F)c3)c2C1 (stereo unspecified),-1.71%
20,Cc1cccc(C(=O)N2CCn3cnc(COCC4CC4)c3C2)c1,-5.71%
